How the values were obtained:
[1] = Maillard reaction (coloration with glycine); assay type: physicochemical; conditions: 10 w/v % saccharide, one w/v % glycine, 50 mM phosphate buffer pH 7.0, 100° C. for 90 min, 1-cm light-path cell
[2] = system: Bifidobacterium adolescentis JCM 1275; assay: Assimilation test by intestinal microorganism; assay type: cell-based; conditions: 0.5 w/v % saccharide in PYF broth, 37° C., 96 hours; free of sugar: -
[3] = system: Bifidobacterium animalis JCM 1190; assay: Assimilation test by intestinal microorganism; assay type: cell-based; conditions: 0.5 w/v % saccharide in PYF broth, 37° C., 96 hours; free of sugar: -
[4] = system: Bifidobacterium bifidum JCM 1255; assay: Assimilation test by intestinal microorganism; assay type: cell-based; conditions: 0.5 w/v % saccharide in PYF broth, 37° C., 96 hours; free of sugar: -
[5] = system: Bifidobacterium breve JCM 1192; assay: Assimilation test by intestinal microorganism; assay type: cell-based; conditions: 0.5 w/v % saccharide in PYF broth, 37° C., 96 hours; free of sugar: -
[6] = system: Bifidobacterium infantis JCM 1222; assay: Assimilation test by intestinal microorganism; assay type: cell-based; conditions: 0.5 w/v % saccharide in PYF broth, 37° C., 96 hours; free of sugar: -
[7] = system: Bifidobacterium longum JCM 1217; assay: Assimilation test by intestinal microorganism; assay type: cell-based; conditions: 0.5 w/v % saccharide in PYF broth, 37° C., 96 hours; free of sugar: -
[8] = system: Lactobacillus fermentum IFO 3959; assay: Assimilation test by intestinal microorganism; assay type: cell-based; conditions: 0.5 w/v % saccharide in PYF broth, 37° C., 96 hours; free of sugar: -
[9] = system: Lactobacillus plantarum IFO 3070; assay: Assimilation test by intestinal microorganism; assay type: cell-based; conditions: 0.5 w/v % saccharide in PYF broth, 37° C., 96 hours; free of sugar: -
[10] = system: Eubacterium aerofaciens ATCC 25986; assay: Assimilation test by intestinal microorganism; assay type: cell-based; conditions: 0.5 w/v % saccharide in PYF broth, 37° C., 96 hours; free of sugar: -
[11] = system: Bacteroides distasonis JCM 5825; assay: Assimilation test by intestinal microorganism; assay type: cell-based; conditions: 0.5 w/v % saccharide in PYF broth, 37° C., 96 hours; free of sugar: -
[12] = system: Bacteroides vulgatus JCM 5826; assay: Assimilation test by intestinal microorganism; assay type: cell-based; conditions: 0.5 w/v % saccharide in PYF broth, 37° C., 96 hours; free of sugar: -
[13] = system: Bacteroides uniformis JCM 5828; assay: Assimilation test by intestinal microorganism; assay type: cell-based; conditions: 0.5 w/v % saccharide in PYF broth, 37° C., 96 hours; free of sugar: -
[14] = system: Clostridium perfringens JCM 3816; assay type: cell-based; conditions: 0.5 w/v % saccharide in PYF broth, 37° C., 96 hours; free of sugar: -
[15] = system: Clostridium ramosum JCM 1298; assay: Assimilation test by intestinal microorganism; assay type: cell-based; conditions: 0.5 w/v % saccharide in PYF broth, 37° C., 96 hours; free of sugar: -
[16] = system: Clostridium sporogenes JCM 1416; assay: Assimilation test by intestinal microorganism; assay type: cell-based; conditions: 0.5 w/v % saccharide in PYF broth, 37° C., 96 hours; free of sugar: ±
Protocol: To evaluate the growth rate of and to judge the assimilability by the microorganisms, the resultant broth was diluted 5-fold, and the turbidity of the dilution was measured at a wavelength of 750 nm in a 1-cm light-path cell. […] The criteria were in Table 3, and the results were in Tables 4 and 5: […]

[17] = system: Streptococcus faecalis IAM 10065; assay: Assimilation test by intestinal microorganism; assay type: cell-based; conditions: 0.5 w/v % saccharide in PYF broth, 37° C., 96 hours; free of sugar: -
[18] = system: Peptostreptococcus prevotii ATCC 9321; assay: Assimilation test by intestinal microorganism; assay type: cell-based; conditions: 0.5 w/v % saccharide in PYF broth, 37° C., 96 hours; free of sugar: -
[19] = system: Escherichia coli IFO 3301; assay: Assimilation test by intestinal microorganism; assay type: cell-based; conditions: 0.5 w/v % saccharide in PYF broth, 37° C., 96 hours; free of sugar: -
[20] = target: T1, Salivary amylase (Homo sapiens, UniProt P0DUB6); assay: in vitro
T1 sequence (P0DUB6 16-511): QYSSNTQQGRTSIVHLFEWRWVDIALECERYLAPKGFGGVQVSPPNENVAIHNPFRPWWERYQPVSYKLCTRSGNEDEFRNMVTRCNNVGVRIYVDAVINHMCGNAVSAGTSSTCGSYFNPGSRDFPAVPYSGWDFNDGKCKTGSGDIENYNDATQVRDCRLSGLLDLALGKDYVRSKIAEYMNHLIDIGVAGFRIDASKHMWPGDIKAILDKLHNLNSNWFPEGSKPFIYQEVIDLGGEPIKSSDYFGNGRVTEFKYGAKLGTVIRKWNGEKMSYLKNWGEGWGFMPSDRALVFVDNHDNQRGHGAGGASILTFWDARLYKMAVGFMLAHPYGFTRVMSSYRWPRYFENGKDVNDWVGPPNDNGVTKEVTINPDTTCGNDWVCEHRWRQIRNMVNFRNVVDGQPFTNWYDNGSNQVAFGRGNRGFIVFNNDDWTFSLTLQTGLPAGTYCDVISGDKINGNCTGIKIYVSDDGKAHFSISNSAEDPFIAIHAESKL

[21] = in vitro; conditions: gastric acid
[22] = target: T2, Pancreatic juice amylase (Homo sapiens, UniProt P04746); assay: in vitro
T2 sequence (P04746 16-511): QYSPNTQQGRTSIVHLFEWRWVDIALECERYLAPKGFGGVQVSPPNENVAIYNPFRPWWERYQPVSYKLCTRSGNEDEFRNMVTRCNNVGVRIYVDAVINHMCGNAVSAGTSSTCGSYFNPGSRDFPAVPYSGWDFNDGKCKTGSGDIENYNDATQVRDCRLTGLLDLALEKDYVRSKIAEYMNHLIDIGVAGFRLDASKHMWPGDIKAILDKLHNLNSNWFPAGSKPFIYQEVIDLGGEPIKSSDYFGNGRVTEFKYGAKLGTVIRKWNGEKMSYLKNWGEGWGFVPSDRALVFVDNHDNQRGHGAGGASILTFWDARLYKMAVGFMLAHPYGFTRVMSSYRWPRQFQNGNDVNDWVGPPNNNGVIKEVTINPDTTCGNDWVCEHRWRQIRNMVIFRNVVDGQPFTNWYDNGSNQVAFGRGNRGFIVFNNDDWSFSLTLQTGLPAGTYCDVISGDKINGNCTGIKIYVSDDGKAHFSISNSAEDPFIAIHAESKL

[23] = system: Streptococcus sobrinus ATCC 27351; assay: Acid formation by dental caries-inducing microorganisms; conditions: for pH at each fermentation time (min): living wet cells, 0.02M saccharide, Stephen buffer pH 7.0, 37° C.
[24] = system: Clostridium butyricum JCM 1391; assay type: cell-based; conditions: 0.5 w/v % saccharide in PYF broth, 37° C., 96 hours; free of sugar: -
[25] = system: glucosyltransferase; assay: Inhibition of insoluble glucan formation by glucosyltransferase from dental caries-inducing microorganism; assay type: biochemical, Streptococcus sobrinus strain (ATCC 27351); conditions: sucrose plus test saccharide (one ml of one w/v % each), 37° C., 16 hours
Protocol: To a mixture solution consisting of one ml of one w/v % sucrose solution, one ml of one w/v % of a test saccharide solution, and 1.5 ml of 0.1M phosphate buffer (pH 6.8) was added 0.5 ml solution containing a crude glucosyltransferase specimen in a total protein content of 10 mg, and the mixture solution was placed in a small test tube which was then fixed and slanted to give a grade 30 degrees and allowed to react at 37° C. for 16 hours. The reaction mixture was transferred gently to another test tube and mixed with a solution obtained by washing carefully with 4 ml water the remaining substances adhered to the inner walls of the small test tube, and the mixture solution was centrifuged to obtain a precipitate as a non-adsorbed glucan. The amounts of the adsorbed- and non-adsorbed glucans thus obtained were respectively quantified by the anthrone-sulfuric acid method, and the total amount of them was regarded as the amount of the formed insoluble glucans. As a control system, a reaction system using water in place of the test saccharide solution, i.e. a reaction system using sucrose as a saccharide, was provided.

[26] = in vitro; conditions: small intestinal mucosa enzyme

Row | Structure (SMILES) | Coloration degree (at a wavelength of 480 nm) [1] | Judgement of assimilation (turbidity at 750 nm, ×5) [2] | Judgement of assimilation (turbidity at 750 nm, ×5) [3] | Judgement of assimilation (turbidity at 750 nm, ×5) [4] | Judgement of assimilation (turbidity at 750 nm, ×5) [5] | Judgement of assimilation (turbidity at 750 nm, ×5) [6] | Judgement of assimilation (turbidity at 750 nm, ×5) [7] | Judgement of assimilation (turbidity at 750 nm, ×5) [8] | Judgement of assimilation (turbidity at 750 nm, ×5) [9] | Judgement of assimilation (turbidity at 750 nm, ×5) [10] | Judgement of assimilation (turbidity at 750 nm, ×5) [11] | Judgement of assimilation (turbidity at 750 nm, ×5) [12] | Judgement of assimilation (turbidity at 750 nm, ×5) [13] | Judgement of assimilation (turbidity at 750 nm, ×5) [14] | Judgement of assimilation (turbidity at 750 nm, ×5) [15] | Judgement of assimilation (turbidity at 750 nm, ×5) [17] | Judgement of assimilation (turbidity at 750 nm, ×5) [18] | Judgement of assimilation (turbidity at 750 nm, ×5) [19] | metabolised [20] [%] | metabolised [22] [%] | further results
1 | OC[C@H]1O[C@H](OC[C@H]2OC(O)[C@H](O)[C@@H](O)[C@@H]2O)[C@H](O)[C@@H](O)[C@@H]1O (stereo partly shown) [Isomaltose, reference compound] | 0.938 | +++ (0.3 or higher) | +++ (0.3 or higher) | + (0.15 or higher but less than 0.2) | +++ (0.3 or higher) | +++ (0.3 or higher) | ++ (0.2 or higher but less than 0.3) | - (Less than 0.1) | - (Less than 0.1) | + (0.15 or higher but less than 0.2) | + (0.15 or higher but less than 0.2) | - (Less than 0.1) | - (Less than 0.1) | ± (0.1 or higher but less than 0.15) | - (Less than 0.1) | + (0.15 or higher but less than 0.2) | - (Less than 0.1) | - (Less than 0.1) | 0 | 0.2 | Judgement of assimilation (turbidity at 750 nm, ×5) [16]: ± (0.1 or higher but less than 0.15); degraded [21]: 0%; pH reduction / acid fermentation, in words [23]: slight; pH at each fermentation time (min) ([23]; 0 min): 7.0; pH at each fermentation time (min) ([23]; 5 min): 7.0; pH at each fermentation time (min) ([23]; 15 min): 6.9; pH at each fermentation time (min) ([23]; 30 min): 6.9; pH at each fermentation time (min) ([23]; 60 min): 6.8; pH at each fermentation time (min) ([23]; 90 min): 6.7
2 | OC[C@H]1O[C@H](O[C@H]2O[C@H](CO)[C@@H](O)[C@H](O)[C@H]2O)[C@H](O)[C@@H](O)[C@@H]1O [Trehalose, α,α-trehalose, reference compound] | 0.007 | + (0.15 or higher but less than 0.2) | + (0.15 or higher but less than 0.2) | + (0.15 or higher but less than 0.2) | - (Less than 0.1) | - (Less than 0.1) | ++ (0.2 or higher but less than 0.3) | + (0.15 or higher but less than 0.2) | ++ (0.2 or higher but less than 0.3) | - (Less than 0.1) | ++ (0.2 or higher but less than 0.3) | + (0.15 or higher but less than 0.2) | ++ (0.2 or higher but less than 0.3) | +++ (0.3 or higher) | + (0.15 or higher but less than 0.2) | + (0.15 or higher but less than 0.2) | + (0.15 or higher but less than 0.2) | - (Less than 0.1) | 0 | 0 | Judgement of assimilation (turbidity at 750 nm, ×5) [24]: +++ (0.3 or higher); Yield of non-adsorbed glucans ([25]; sucrose alone control 923): 1,130 pg/ml; Yield of adsorbed glucans ([25]; sucrose alone control 1,160): 772 pg/mL; Inhibitory percentage (%) on insoluble glucans formation ([25]; vs sucrose alone): 8.7%; metabolised [26]: 1.3%; pH reduction / acid fermentation, in words [23]: moderate; pH at each fermentation time (min) ([23]; 0 min): 7.0; pH at each fermentation time (min) ([23]; 5 min): 6.7; pH at each fermentation time (min) ([23]; 15 min): 5.3; pH at each fermentation time (min) ([23]; 30 min): 4.7; pH at each fermentation time (min) ([23]; 60 min): 4.3; pH at each fermentation time (min) ([23]; 90 min): 4.2

Reference: patent US5858992A, “Non-reducing saccharides, their preparation and use” (Kabushiki Kaisha Hayashibara Seibutsu Kagaku Kenkyujo, priority 1995, dated 1999)
